We go through 15 compounds from patent US10377741B2, “Substituted heteroaryl aldehyde compounds and methods for their use in increasing tissue oxygenation” (Global Blood Therapeutics, Inc., priority 2011, dated 2019).

SMILES strings stand for the structures.

The target in one assay is T1, HbS/A (Homo sapiens, UniProt P68871+P69905, E7V).
T1 construct: A mixture of HbS/A was purified from blood; from tissue; host or cells: blood of homozygous sickle cell patients (CHORI)
In words: R/T assay (relaxed-to-tense transition under deoxygenated conditions). The format is biochemical, human (homozygous sickle cell patients). The note with it: 3 μM HbS/A, % R remaining vs no treatment. The method, boiled down:
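Purified HbS/A (3 μM final) incubated 1 hr at 37° C with compounds (3 μM to 100 μM) in potassium phosphate buffer pH 7.4 with 30 μM DPG, then deoxygenated under N2 with 300–700 nm spectra every 5 min for 2 hours. Delta R is % R state retained versus untreated, by linear regression over all wavelengths.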

The target in assay [1] is T2, purified Hemoglobin S (HbS) (Homo sapiens, UniProt P68871+P69905, E7V).
T2 construct: HbS was purified by a modified procedure; from tissue; host or cells: blood of homozygous sickle cell patients (CHORI); for the polymerization assay purified by the CRO VIRUSYS
In words: Modulation of hemoglobin oxygen affinity: oxygen equilibrium curves (HEMOX) in purified HbS. The format is biochemical, human (homozygous sickle cell patients). Conditions: compound at 30 μM; 25 μM purified HbS, 45 min at 37° C. The method in brief: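 HbS from homozygous sickle cell patient blood, 25 μM in HEMOX buffer pH 7.4, incubated 45 min at 37° C with compound (30 μM unless noted). Air-saturated then deoxygenated with N2; p50 from Hill fit; delta p50% = (control p50 − treated p50)/control p50 × 100.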

The next assay relates to whole blood. In words: Whole blood assay: oxygen equilibrium curves of whole blood. The format is cell-based, human (homozygous sickle cell patients). The note with it: compound at 1000 μM; hematocrit 20%, 1 hour at 37° C. As to the method:
Oxygen Equilibrium Curves (OEC) of whole blood before and after treatment with different concentrations of substituted benzaldehyde compounds were performed as follows using a HEMOX analyzer (TCS Scientific, New Hope, Pa.). Blood samples from homozygous sickle cell patients were obtained though the Hemoglobinopathy Center at Children's Hospital Oakland Research Institute (CHORI) with Institutional Review Board approval. The hematocrit was adjusted to 20% using autologous plasma and the blood samples were incubated for 1 hour at 37° C. in absence or presence of compounds. 100 μl of these samples were added to 5 mL of Hemox buffer (30 mM TES, 130 mM NaCl, 5 mM KCl, pH=7.4) at 37° C. and then transferred to the Hemox sample chamber. The samples were saturated with oxygen by flushing with compressed air for 10 minutes. The samples were then flushed with pure nitrogen and the respective absorbances of oxy- and deoxy-Hb are recorded as a function of the solution pO2. The oxygen equilibrium data were then fitted to the Hill Model to obtain values for p50. The deoxygenation curves for both whole blood alone (control) and whole blood in the presence of the compound were collected with the TCS software.
Table 5 below lists the delta p50% values where + indicates a delta p50% of between 0 and 29, ++ indicates a delta p50% of between 30 and 50, and +++ indicates a delta p50% of 50 or greater. Unless noted otherwise, the compounds in Table 2 were tested at 1000 μM.

Another assay addresses T3, purified HBS (Homo sapiens, UniProt P68871+P69905, E7V).
T3 construct: HbS was purified by a modified procedure; from tissue; host or cells: blood of homozygous sickle cell patients (CHORI); for the polymerization assay purified by the CRO VIRUSYS
In words: Polymerization assay (delay time of HbS polymerization). Conditions: percent delay (% DT) vs HBS alone; 50 μM purified HBS, 1.8 M potassium phosphate pH 7.4. The format is biochemical, human (homozygous sickle cell patients). As to the method: Polymerization assays are carried out in vitro using purified HBS exchanged into 1.8 M potassium phosphate buffer at pH 7.4. Using a slightly modified protocol (Antonini and Brunori, 1971), HbS is purified by the CRO VIRUSYS, from blood obtained from homozygous sickle cell patients through the Hemoglobinopathy Center at Children's Hospital Oakland Research Institute (CHORI) with Institutional Review Board approval. Compounds are prepared in 100% DMSO and a desired amount is added to 50 μM of purified HBS at a final DMSO concentration of 0.3%. Final potassium phosphate concentration is adjusted to 1.8 M using a combination of 2.5 M potassium phosphate stock solution and water at pH 7.4. The reaction mixture is incubated for an hour at 37° C. and then transferred into a 24-well plate for deoxygenation in a glove box containing 99.5% nitrogen and 0.5% oxygen. The 24-well plate is not covered and incubated at 4° C. on a plate cooler inside the glove box for one and a half hours. Fifty μL of the reaction mixture is transferred into a 96-well plate and the absorbance at 700 nm is measured every minute for one hour at 37° C. in a plate reader located inside the glove box. A plot of the absorbance against time is fitted using a Boltzman sigmoidal fit and the delay time (from zero to time at half Vmax) is measured. To compare and rank compounds, delay times are expressed as percent delay (% DT), which is defined as the difference in delay times for HBS/compound and HBS alone multiplied by 100 and divided by the delay time for HBS alone.
Compounds listed below have been tested in the polymerization assay. Activity ranges are defined by the number of dagger (†) symbols indicated. † denotes activity ≥40% but ≤80%; †† denotes activity >80% but ≤120%; ††† denotes activity >120% but ≤140%; †††† denotes activity >160%.

`COc1cc(C=O)c(OCc2cccn3ccnc23)cn1` [Compound 5]: the “delta R” value at HbS/A (compound at 30 μM) was “++ (a delta R of between 30 and 50)”. In assay [1], the “delta p50%” value was “++ (a delta p50% of between 30 and 50)”. The “delta p50% Values for Whole Blood Assay” value in the assay on whole blood was “+ (a delta p50% of between 0 and 29)”. Besides, the “% delta Delay” value at purified HBS is “† (activity ≥40% but ≤80%)”.

`COc1cc(C=O)c(OCc2cccnc2-c2ccn(C)n2)cn1` [Compound 130, 2-methoxy-5-((2-(1-methyl-1H-pyrazol-3-yl)pyridin-3-yl)methoxy)isonicotinaldehyde]: the “delta R” value on HbS/A (compound at 9 μM) was “+ (a delta R of between 0 and 30)”. The “delta p50%” value in assay [1] was “++ (a delta p50% of between 30 and 50)”. Moreover, in the assay on whole blood, the “delta p50% Values for Whole Blood Assay” value was “++ (a delta p50% of between 30 and 50)”. For the same compound, at purified HBS, the “% delta Delay” value is recorded as “† (activity ≥40% but ≤80%)”.

For the compound `CCn1nccc1-c1ncccc1COc1cnc(OC)cc1C=O` [Compound 149, 5-((2-(1-ethyl-1H-pyrazol-5-yl)pyridin-3-yl)methoxy)-2-methoxyisonicotinaldehyde], the “delta R” value on HbS/A (compound at 9 μM) is “+ (a delta R of between 0 and 30)”. Also, the “delta p50%” value in assay [1] was “+++ (a delta p50% of 50 or greater)”. Further, the “delta p50% Values for Whole Blood Assay” value in the assay with whole blood is “+++ (a delta p50% of 50 or greater)”. Moreover, at purified HBS, the “% delta Delay” value is “† (activity ≥40% but ≤80%)”.

Consider `COc1cc(C=O)c(OCc2cccnc2-c2ccnn2C(C)C)cn1` [Compound 150], for which, on HbS/A (compound at 30 μM), the “delta R” value was “+++ (a delta R of 50 or greater)”. Besides, in assay [1], the “delta p50%” value is reported as “+++ (a delta p50% of 50 or greater)”. Also, in the assay with whole blood, the “delta p50% Values for Whole Blood Assay” value was “+++ (a delta p50% of 50 or greater)”. Also, the “% delta Delay” value on purified HBS was “††† (activity >120% but ≤140%)”.

Turning to `O=Cc1cc(OC(F)F)ncc1OCc1cccn2ccnc12` [Compound 158, 2-(difluoromethoxy)-5-(imidazo[1,2-a]pyridin-8-ylmethoxy)isonicotinaldehyde], on HbS/A (compound at 9 μM), the “delta R” value is “+ (a delta R of between 0 and 30)”. Also, the “delta p50%” value in assay [1] was “++ (a delta p50% of between 30 and 50)”. Further, in the assay with whole blood, the “delta p50% Values for Whole Blood Assay” value was “+ (a delta p50% of between 0 and 29)”. Also, the “% delta Delay” value at purified HBS is listed as “† (activity ≥40% but ≤80%)”.

Take `COc1cc(C=O)c(OCc2cccnc2-c2ccccc2)cn1` [Compound 159, 2-methoxy-5-((2-phenylpyridin-3-yl)methoxy) isonicotinaldehyde]: the “delta R” value on HbS/A (compound at 30 μM) was “++ (a delta R of between 30 and 50)”. Also, the “delta p50%” value in assay [1] is reported as “+++ (a delta p50% of 50 or greater)”. Besides, the “delta p50% Values for Whole Blood Assay” value in the assay on whole blood is “+++ (a delta p50% of 50 or greater)”. In addition, at purified HBS, the “% delta Delay” value is recorded as “†† (activity >80% but ≤120%)”.

`COc1cc(C=O)c(OCc2ccncc2-c2ccnn2C(C)C)cn1` [Compound 160, 5-((3-(1-isopropyl-1H-pyrazol-5-yl)pyridin-4-yl)methoxy)-2-methoxyisonicotinaldehyde]: at HbS/A (compound at 30 μM), the “delta R” value is “+ (a delta R of between 0 and 30)”. Moreover, the “delta p50%” value in assay [1] is given as “+++ (a delta p50% of 50 or greater)”. The “delta p50% Values for Whole Blood Assay” value in the assay on whole blood is listed as “+++ (a delta p50% of 50 or greater)”. The “% delta Delay” value on purified HBS was “†† (activity >80% but ≤120%)”.

As for `COc1cc(C=O)c(OCc2cccnc2-c2ccccc2C)cn1` [Compound 162, 2-methoxy-5-((2-(o-tolyl)pyridin-3-yl)methoxy)isonicotinaldehyde], the “delta R” value on HbS/A (compound at 30 μM) is reported as “+++ (a delta R of 50 or greater)”. Also, in assay [1], the “delta p50%” value is reported as “+++ (a delta p50% of 50 or greater)”. Besides, the “delta p50% Values for Whole Blood Assay” value with whole blood is reported as “+++ (a delta p50% of 50 or greater)”. In addition, the “% delta Delay” value on purified HBS is “†† (activity >80% but ≤120%)”.

As for `COc1cc(C=O)c(OCc2cccnc2-c2cccnc2OC)cn1` [Compound 163, 2-methoxy-5-((2′-methoxy-[2,3′-bipyridin]-3-yl)methoxy)isonicotinaldehyde], the “delta R” value on HbS/A (compound at 30 μM) was “++ (a delta R of between 30 and 50)”. Also, the “delta p50%” value in assay [1] is “+++ (a delta p50% of 50 or greater)”. For the same compound, the “delta p50% Values for Whole Blood Assay” value in the assay with whole blood is reported as “+++ (a delta p50% of 50 or greater)”. In addition, at purified HBS, the “% delta Delay” value is reported as “†† (activity >80% but ≤120%)”.

On to `COC(=O)c1ccc(COc2cccnc2C=O)cc1` [Compound 164], for which the “delta R” value at HbS/A (compound at 9 μM) was “++ (a delta R of between 30 and 50)”. For the same compound, the “delta p50%” value in assay [1] was “++ (a delta p50% of between 30 and 50)”. The “delta p50% Values for Whole Blood Assay” value with whole blood was “++ (a delta p50% of between 30 and 50)”. Further, the “% delta Delay” value on purified HBS is listed as “††† (activity >120% but ≤140%)”.

`Cc1ccc(OCc2ccc(C(=O)O)cc2)c(C=O)n1` [Compound 165, 4-(((2-formyl-6-methylpyridin-3-yl)oxy)methyl)benzoic acid]: the “delta R” value on HbS/A (compound at 9 μM) is “+ (a delta R of between 0 and 30)”. Further, the “delta p50%” value in assay [1] is “++ (a delta p50% of between 30 and 50)”. The “delta p50% Values for Whole Blood Assay” value with whole blood was “+ (a delta p50% of between 0 and 29)”. For the same compound, at purified HBS, the “% delta Delay” value is listed as “††† (activity >120% but ≤140%)”.

In the case of `O=Cc1ccncc1OCc1cccc(C(=O)O)c1` [Compound 169, 3-(((4-formylpyridin-3-yl)oxy)methyl)benzoic acid], at HbS/A (compound at 9 μM), the “delta R” value is “++ (a delta R of between 30 and 50)”. The “delta p50%” value in assay [1] is “++ (a delta p50% of between 30 and 50)”. Besides, in the assay with whole blood, the “delta p50% Values for Whole Blood Assay” value was “++ (a delta p50% of between 30 and 50)”. For the same compound, the “% delta Delay” value at purified HBS is recorded as “††† (activity >120% but ≤140%)”.

Take `CCCn1nccc1-c1ncccc1COc1cnc(OC)cc1C=O` [Compound 173, 2-methoxy-5-((2-(1-propyl-1H-pyrazol-5-yl)pyridin-3-yl)methoxy)isonicotinaldehyde]: the “delta R” value on HbS/A (compound at 30 μM) was “+++ (a delta R of 50 or greater)”. Also, the “delta p50%” value in assay [1] was “+++ (a delta p50% of 50 or greater)”. Moreover, the “delta p50% Values for Whole Blood Assay” value in the assay on whole blood was “+++ (a delta p50% of 50 or greater)”. Further, on purified HBS, the “% delta Delay” value is on record as “† (activity ≥40% but ≤80%)”.

For the compound `COc1cc(C=O)c(OCc2cccnc2-c2ccnn2CC(F)(F)F)cn1` [Compound 174, 2-methoxy-5-((2-(1-(2,2,2-trifluoroethyl)-1-pyrazol-5-yl)pyridin-3-yl)methoxy)isonicotinaldehyde], the “delta R” value at HbS/A (compound at 30 μM) is “++ (a delta R of between 30 and 50)”. For the same compound, the “delta p50%” value in assay [1] is “+++ (a delta p50% of 50 or greater)”. The “delta p50% Values for Whole Blood Assay” value in the assay on whole blood is recorded as “+++ (a delta p50% of 50 or greater)”. Further, the “% delta Delay” value on purified HBS is listed as “†† (activity >80% but ≤120%)”.

For the compound `COc1cc(C=O)c(OCc2cccnc2-c2ccnn2CC(F)F)cn1` [Compound 175, 5-((2-(1-(2,2-difluoroethyl)-1H-pyrazol-5-yl)pyridin-3-yl)methoxy)-2-methoxyisonicotinaldehyde], on HbS/A (compound at 30 μM), the “delta R” value was “++ (a delta R of between 30 and 50)”. Further, in assay [1], the “delta p50%” value was “+++ (a delta p50% of 50 or greater)”. Also, the “delta p50% Values for Whole Blood Assay” value with whole blood is “+++ (a delta p50% of 50 or greater)”. Further, the “% delta Delay” value on purified HBS is given as “†† (activity >80% but ≤120%)”.
